From ChEMBL document CHEMBL1143900, “Tetrazole-biarylpyrazole derivatives as cannabinoid CB1 receptor antagonists” (Bioorg Med Chem Lett, 2008)

Biological target: Cannabinoid receptor 1 (Rattus norvegicus, UniProt P20272)
Assay: Inhibition of cannabinoid CB1 receptor in Sprague-Dawley rat brain

Sequence of Cannabinoid receptor 1 (P20272 whole entry): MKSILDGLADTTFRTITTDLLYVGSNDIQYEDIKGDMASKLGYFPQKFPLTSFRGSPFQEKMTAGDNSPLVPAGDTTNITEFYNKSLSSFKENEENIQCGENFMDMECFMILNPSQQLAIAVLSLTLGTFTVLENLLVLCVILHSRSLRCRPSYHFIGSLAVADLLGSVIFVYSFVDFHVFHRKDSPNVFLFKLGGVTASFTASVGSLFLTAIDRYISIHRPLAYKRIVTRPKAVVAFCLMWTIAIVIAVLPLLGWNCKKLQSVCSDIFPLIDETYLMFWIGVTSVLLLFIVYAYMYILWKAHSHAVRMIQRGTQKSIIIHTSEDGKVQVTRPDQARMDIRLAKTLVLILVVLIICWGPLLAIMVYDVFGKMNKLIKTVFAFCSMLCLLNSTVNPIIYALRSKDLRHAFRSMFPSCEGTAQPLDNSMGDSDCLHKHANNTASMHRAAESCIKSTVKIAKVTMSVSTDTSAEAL

Compound | IC50
Cc1c(-c2nnnn2Cc2ccccc2)nn(-c2ccc(Cl)cc2Cl)c1-c1ccc(Cl)cc1 | 94.3 nM
Cc1c(-c2nnnn2-c2ccccc2)nn(-c2ccc(Cl)cc2Cl)c1-c1ccc(Cl)cc1 | 33.8 nM
CCn1nnc(-c2nn(-c3ccc(Cl)cc3Cl)c(-c3ccc(Cl)cc3)c2C)n1 | > 1000 nM
CCCCn1nnc(-c2nn(-c3ccc(Cl)cc3Cl)c(-c3ccc(Cl)cc3)c2C)n1 | 87.7 nM
CCCCCCCCn1nnnc1-c1nn(-c2ccc(Cl)cc2Cl)c(-c2ccc(Cl)cc2)c1C | 47.3 nM
Cc1c(-c2nnnn2C)nn(-c2ccc(Cl)cc2Cl)c1-c1ccc(Cl)cc1 | 1060 nM
Cc1c(-c2nnn(C)n2)nn(-c2ccc(Cl)cc2Cl)c1-c1ccc(Cl)cc1 | > 1000 nM
Cc1c(-c2nnnn2C2CCCCCC2)nn(-c2ccc(Cl)cc2Cl)c1-c1ccc(Cl)cc1 | 26.7 nM
Cc1c(-c2nnnn2C(C)(C)C)nn(-c2ccc(Cl)cc2Cl)c1-c1ccc(Cl)cc1 | 361 nM
CCCCCCCCn1nnc(-c2nn(-c3ccc(Cl)cc3Cl)c(-c3ccc(Cl)cc3)c2C)n1 | 50.6 nM
CCCCn1nnnc1-c1nn(-c2ccc(Cl)cc2Cl)c(-c2ccc(Cl)cc2)c1C | 87.8 nM

Biological target: Cannabinoid receptor 2 (Homo sapiens, UniProt P34972)
Sequence (P34972 whole entry): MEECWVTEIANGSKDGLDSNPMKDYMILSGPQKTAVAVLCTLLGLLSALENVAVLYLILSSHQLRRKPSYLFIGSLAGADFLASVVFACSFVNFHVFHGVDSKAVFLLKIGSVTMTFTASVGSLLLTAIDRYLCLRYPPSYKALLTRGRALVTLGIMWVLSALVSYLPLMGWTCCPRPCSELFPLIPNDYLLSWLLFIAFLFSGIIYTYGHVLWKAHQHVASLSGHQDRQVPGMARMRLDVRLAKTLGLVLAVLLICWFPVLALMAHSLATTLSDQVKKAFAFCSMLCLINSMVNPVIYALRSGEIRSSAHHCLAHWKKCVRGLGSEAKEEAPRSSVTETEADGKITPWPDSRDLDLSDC
Assay: Displacement of [3H]WIN-55212-2 from human cannabinoid CB2 receptor expressed in CHO cells
Assay type: cell-based

Compound | IC50
CCc1c(-c2nnnn2C2CCCC2)nn(-c2ccc(Cl)cc2Cl)c1-c1ccc(Cl)cc1 | 840 nM
Cc1c(-c2nnnn2C2CCCC2)nn(-c2ccc(Cl)cc2Cl)c1-c1ccc(Cl)cc1 | > 10000 nM
CCc1c(-c2nnnn2C2CCCC2)nn(-c2ccc(Cl)cc2Cl)c1-c1ccc(Br)cc1 | 1930 nM
Cc1c(-c2nnnn2C2CCCCCC2)nn(-c2ccc(Cl)cc2Cl)c1-c1ccc(Br)cc1 | > 10000 nM
Cc1c(-c2nnnn2C2CCCCCC2)nn(-c2ccc(Cl)cc2Cl)c1-c1ccc(Cl)cc1 | 818 nM
Cc1c(-c2nnnn2C2CCCC2)nn(-c2ccc(Cl)cc2Cl)c1-c1ccc(Br)cc1 | 4240 nM

System: not listed separately
Assay: Selectivity ratio of IC50 for Sprague-Dawley rat CB1 receptor over IC50 for human CB2 receptor

Compound | Ratio IC50
Cc1c(-c2nnnn2C2CCCC2)nn(-c2ccc(Cl)cc2Cl)c1-c1ccc(Br)cc1 | 366
